Assay results published in publication PMC11200976, “Pitavastatin Calcium Confers Fungicidal Properties to Fluconazole by Inhibiting Ubiquinone Biosynthesis and Generating Reactive Oxygen Species” (Antioxidants, 2024).
Where a name gives a salt, the structure may show the parent alone. Read-outs that look alike come from different tables or passages of the source.

Tests used:
C. albicans [1] = assay: Dose–matrix titration assays (synergy, with YPD recovery plates); format: cell-based, Candida albicans
Protocol: The synergistic effects of drugs were conducted following the same procedure as the MIC assays. Specifically, 50 μL of drug A was distributed through two-fold serial dilution across seven plate columns. Subsequently, 50 μL of drug B was distributed in a two-fold serial dilution manner along seven rows of the plate. Furthermore, 100 μL of C. albicans cultures, adjusted to a density of 1 × 10^3 cells/mL, was dispensed into wells containing drugs and one control well devoid of any drugs. Before the 48 h OD600 readings, the plates were subjected to meticulous agitation to ensure the deposition of a representative 2 μL aliquot from each well onto newly prepared YPD recovery plates, thereby facilitating the evaluation of cellular recuperation following drug treatments. The recovery plates were subsequently incubated at a temperature of 30 °C for a duration ranging from 24 to 48 h, after which they were photographed. The experimental procedures were conducted in triplicate to ensure reliability and reproducibility.

C. albicans [2] = assay: Broth microdilution assay of synergistic lethality with 4 μg/mL FLC (recovery on drug-free YPD); format: cell-based, Candida albicans; conditions: for Synergistic lethal concentrations: concentration of the compound that is synergistically lethal with 4 μg/mL FLC, C. albicans, recovery on drug-free YPD
[3] = tested on: C. albicans SC5314, SN152, cmp1-aid∆/cmp1-aid∆, and PADH1-UPC2 strains; assay: FLC disk diffusion assays (25 μg FLC disk, 5 μM adjuvant); format: cell-based, Candida albicans; conditions: for synergistic lethal effects with FLC compared to GdA and CsA (disk diffusion): Figure S3; for effect on FLC tolerance in FLC disk diffusion, all four strains: SC5314, SN152, cmp1-aid∆/cmp1-aid∆; for effect on FLC tolerance in FLC disk diffusion, all four strains / effect on FLC tolerance in FLC disk diffusion, PADH1-UPC2 strain: PADH1-UPC2
Protocol: Yeast cells were cultured overnight at a temperature of 30 °C, and the resulting cell suspension was diluted to a concentration of 1 × 10^7 cells/mL in phosphate-buffered saline (PBS). At a concentration of 5 μM, the drugs were individually added to YPD plates for disk assays using a 25 μg FLC disk (6 mm, Liofilchem, Roseto degli Abruzzi, Italy). The plates were then incubated at 30 °C for 48 h. Subsequently, the disk was transferred to a drug-free YPD plate, which was incubated at 30 °C for 24 h and photographed.

[4] = Acute toxicity, Up-and-Down procedure (OECD 425), intraperitoneal; format: in vivo; conditions: C57BL/6, mouse, in vivo, ip, mice
Protocol: (§1) Following a previously described methodology, the intraperitoneal route was employed in adult mice. In brief, the primary test involved a sequential administration of doses at intervals of at least 48 h, with one mouse being dosed at a time. Initially, a dose below LD50 was administered intraperitoneally to a mouse. If the mouse survived, the subsequent mouse would receive 1.3 times the initial dose. Conversely, if the mouse died, the subsequent mouse would receive a dose decreased by 1.3 times the initial dose. Each mouse was monitored for 48 h before determining the subsequent mouse’s dosage and administration. The experiment was terminated upon five “survive or die” reversals within a consecutive set of six animals tested. Subsequently, the LD50 and its corresponding confidence interval were computed based on the conditions observed in all mice after the experiment.

[5] = tested on: Candida guilliermondii clinical isolates; assay: Supra-MIC growth (SMG) of FLC in clinical isolates; format: cell-based; conditions: n = 7 isolates
C. albicans [6] = assay: MIC assays (CLSI M27 broth microdilution); format: cell-based, Candida albicans; conditions: Candida albicans
Protocol: The MIC assays for C. albicans were conducted following the broth microdilution protocol outlined by the Clinical and Laboratory Standards Institute (CLSI) protocols (M27, 4th edition). In brief, FDA-approved drugs were diluted in 96-well plates at two-fold the final concentration, with 4 μg/mL FLC. This dilution was combined with the cell suspension with a concentration of 1 × 10^3 cells/mL. The plates were incubated at a temperature of 30 °C for 48 h without agitation.

C. albicans [7] = assay: Determination of MFC; format: cell-based, Candida albicans; conditions: for MFC: Candida albicans
Protocol: The determination of MFC followed the previously described method. In brief, a tested drug at a concentration two times higher than the final concentration was diluted in a two-fold serial dilution manner across ten columns of the plate, with each well containing 100 μL of the drug. Subsequently, 100 μL of C. albicans cultures (1 × 10^4 cells/mL) were transferred into wells with and without any drugs as the control. Following incubation at 30 °C for 48 h, a 200 μL aliquot per well was removed and evenly spread on SDA plates, which were then incubated at 30 °C for 48 h. The MFC value was determined as the lowest drug concentration at which 99.9% of fungal colonies were eradicated compared to the control group.

[8] = tested on: Candida glabrata clinical isolates; assay: Supra-MIC growth (SMG) of FLC in clinical isolates; format: cell-based; conditions: n = 4 isolates
[9] = tested on: C. albicans clinical isolates; assay: Supra-MIC growth (SMG) of FLC in clinical isolates; format: cell-based, Candida albicans; conditions: n = 7 isolates
C. albicans [10] = assay: Murine invasive C. albicans infections (C57BL/6 mice); format: in vivo, Candida albicans
Protocol: . Before commencing drug therapy, the mice were inoculated with 200 μL of PBS containing 2 × 10^5 C. albicans cells via the lateral tail vein. […]. The mice were weighed, and their weights were recorded every three days while their survival was monitored daily for 30 days. Two-tailed unpaired t-tests were employed to assess the weight changes. Kaplan–Meier analyses were employed to assess the survival probabilities, while log-rank testing was utilized to determine the statistical significance of the survival curves. In the case of fungal burden analyses, the mice were closely monitored twice daily for any indications of infection and were euthanized humanely upon reaching the predetermined endpoints. Subsequently, each mouse’s spleen, liver, and kidneys were harvested and homogenized in sterile PBS after sacrifice, followed by streaking onto SDA agar plates. Following a 48 h incubation period, the colonies were quantified, and colony-forming units (CFUs) were calculated. For histopathological analysis, kidney tissues from mice infected for 6 or 10 days were procured and fixed in buffered formalin. Subsequently, the tissues were embedded in paraffin, sectioned into 3–4 μm slices, and subjected to PAS staining using established protocols. All experimental procedures involving animals were approved by the Tongji University Animal Care Committee (No.: TJAA00322101).

mice = assay: Acute toxicity, Up-and-Down procedure (OECD 425), intraperitoneal; format: in vivo
Protocol: as §1

Compound | concentration that renders FLC fungicidal (no recovery on YPD solid medium) (C. albicans [1]; FLC ≤4 μg/mL, YPD, 30 °C, 48 h) [µM] | Synergistic lethal concentrations (C. albicans [2]) [µM] | synergistic lethal effects with FLC compared to GdA and CsA (disk diffusion) [3] | effect on FLC tolerance in FLC disk diffusion, all four strains [3] | LD50 at 48 h [4] [mg/kg] | also measured
ivermectin | ≤ 3.125 | 3.125 | weaker synergistic lethal effects | – | – | –
COC1=C2C[C@@H](C)C[C@H](OC)[C@H](O)[C@@H](C)/C=C(\C)[C@H](OC(N)=O)[C@@H](OC)/C=C\C=C(/C)C(=O)NC(=CC1=O)C2=O [GdA, geldanamycin] | – | – | – | effectively eradicated the zones of FLC inhibition | 19 | –
N=C(NCCCCCCNC(=N)NC(=N)Nc1ccc(Cl)cc1)NC(=N)Nc1ccc(Cl)cc1.O=C(O)[C@H](O)[C@@H](O)[C@H](O)[C@H](O)CO.O=C(O)[C@H](O)[C@@H](O)[C@H](O)[C@H](O)CO [chlorhexidine digluconate] | ≤ 3.125 | – | – | – | – | effect on FLC tolerance in FLC disk diffusion, PADH1-UPC2 strain [3]: unsuccessful in reducing FLC tolerance
OC(Cn1cncn1)(Cn1cncn1)c1ccc(F)cc1F [FLC, Fluconazole] | – | – | – | – | – | SMG value of FLC ([5]; FLC alone): 0.0667; SMG value of FLC ([5]; in combination with PIT, p = 0.0362): 0.0166; MIC (C. albicans [6]; SEC14/sec14△, YPD + 0.5 μM PIT, read-out: MIC of FLC): 1 µg/mL; MIC (C. albicans [6]; SEC14/sec14△, YPD + 1 μM PIT, read-out: MIC of FLC): 0.5 µg/mL; MIC (C. albicans [6]; SEC14/sec14△, YPD, read-out: MIC of FLC): 1 µg/mL; MIC (C. albicans [6]; SN152, YPD, read-out: MIC of FLC): 1 µg/mL; MIC (C. albicans [6]; read-out: MIC of FLC, age3△/age3△, YPD + 0.5 μM PIT): 0.25 µg/mL; MIC (C. albicans [6]; read-out: MIC of FLC, age3△/age3△, YPD + 1 μM PIT): 0.125 µg/mL; MFC (C. albicans [7]; absence of PIT): > 64 µg/mL; MFC (C. albicans [7]; in the presence of PIT (1 μM)): 2 µg/mL; ratio of MFC to MIC of FLC (C. albicans [7]; in the presence of 1 μM PIT): 4; SMG value of FLC ([8]; FLC alone): 0.3169; SMG value of FLC ([8]; in combination with PIT, p = 0.0442): 0.0031; SMG value of FLC ([9]; FLC alone): 0.1203; SMG value of FLC ([9]; in combination with PIT, p = 0.002): 0; kidney fungal burden in cmp1-aidΔ/cmp1-aidΔ infected group compared to cmp1Δ/cmp1Δ infected group (C. albicans [10]; after 1 mg/kg FLC ip for 3 days, 6 or 10 days after infection): notably greater; mortality rate (C. albicans [10]; clinical isolate 283, FLC 4 mg/kg, PIT 3 mg/kg, 30-day observation period): 50%; average weight loss on the 15th day of infection (C. albicans [10]; clinical isolate 283, FLC 4 mg/kg, PIT 3 mg/kg, ten mice per group): 1.16 ± 0.63 g
Oc1cc(Cl)ccc1Oc1ccc(Cl)cc1Cl [triclosan] | ≤ 3.125 | 0.3906 | – | made FLC fungicidal | 62.6 | –
polymyxin B sulfate | ≤ 3.125 | 6.25 | – | – | – | effect on FLC tolerance in FLC disk diffusion, PADH1-UPC2 strain [3]: unsuccessful in reducing FLC tolerance; LD50 (mice): 25 mg/kg
bleomycin sulfate | – | – | – | – | – | concentration that renders FLC fungicidal (no recovery on YPD solid medium) (C. albicans [1]): ≤ 3.125 µM; effect on FLC tolerance in FLC disk diffusion, cmp1-aid∆/cmp1-aid∆ strain ([3]; cmp1-aid∆/cmp1-aid∆): failed to clear the zone of FLC inhibition; LD50 (mice): 21.57 mg/kg
C[C@@H]1CC[C@@]2(OC1)O[C@H]1C[C@H]3[C@@H]4CC=C5C[C@@H](O[C@@H]6O[C@H](CO)[C@@H](O[C@@H]7O[C@@H](C)[C@H](O)[C@@H](O)[C@H]7O)[C@H](O)[C@H]6O[C@@H]6O[C@@H](C)[C@H](O)[C@@H](O)[C@H]6O)CC[C@]5(C)[C@H]4CC[C@]3(C)[C@H]1[C@@H]2C [dioscin] | ≤ 3.125 | 6.25 | weaker synergistic lethal effects | – | 32 | –
Cc1ccc(Sc2ccccc2N2CCNCC2)c(C)c1 [vortioxetine] | ≤ 3.125 | 6.25 | – | made FLC fungicidal | 48.3 | –
CCCCCCCCCCCC[N+](C)(C)CCOc1ccccc1 [domiphen bromide] | ≤ 3.125 | – | weaker synergistic lethal effects | – | – | –
CCCCCCCCN=c1ccn(CCCCCCCCCCn2ccc(=NCCCCCCCC)cc2)cc1 [octenidine dihydrochloride] | ≤ 3.125 | – | weaker synergistic lethal effects | – | – | –
COCc1c(C(C)C)nc(C(C)C)c(/C=C/[C@@H](O)C[C@@H](O)CC(=O)O)c1-c1ccc(F)cc1 [cerivastatin sodium] | ≤ 3.125 | – | – | made FLC fungicidal | – | synergistic lethal concentration (converts FLC from fungistatic to fungicidal) (C. albicans [2]; with 4 μg/mL FLC, tested 100 μM to 0.1953 μM, 30 °C, 48 h): ≤ 6.25 µM
CC[C@@H]1/C=C(\C)C[C@H](C)C[C@H](OC)[C@H]2O[C@@](O)(C(=O)C(=O)N3CCCC[C@H]3C(=O)O[C@H](/C(C)=C/[C@@H]3CC[C@H](Cl)[C@H](OC)C3)[C@H](C)[C@@H](O)CC1=O)[C@H](C)C[C@@H]2OC [pimecrolimus] | ≤ 3.125 | 0.1953 | – | made FLC fungicidal | 42 | –
